Results published in patent US20250195551A1 (L4 BIO LLC, priority 2023, published 2025).

Test: Excipient compatibility study
Format: physicochemical
Conditions: for Chromatographic purity by HPLC (Assay) / Total Impurities % (excluding API impurities %): 40° C./75% RH
Protocol: An excipient compatibility study was initiated with selected excipients ranging from oils to surfactants based on equilibrium solubility results (Table 2). […] After solutions were prepared using a hand-held homogenizer (Model IKAT10 Ultra-Turrax), each excipient sample was aliquoted in amber vials, approximately 10% water was added in each excipient aliquot, and bench scale gel stripe OET-004037 was also made and added in a separate set of aliquot samples at approximately 1:1 w/w.
All samples were stored at 40° C./75% relative humidity (RH) condition (Model: Lunaire environmental chamber) and tested by developmental reversed phase HPLC method for Assay/Related Substances at T=0, 2 weeks, and 1 month.

[1] = in Fractionated coconut oil, Sample: 10% water, T = 2 weeks
[2] = in Fractionated coconut oil, Sample: Control, T = 0
[3] = in Fractionated coconut oil, Sample: Control, T = 2 weeks
[4] = in Fractionated coconut oil, Sample: Gel Stripe (1:1 w/w), T = 2 weeks
[5] = in Labrasol ALF, Sample: 10% water, T = 1 months
[6] = in Labrasol ALF, Sample: 10% water, T = 2 weeks
[7] = in Labrasol ALF, Sample: Control, T = 0
[8] = in Labrasol ALF, Sample: Control, T = 1 months
[9] = in Labrasol ALF, Sample: Control, T = 2 weeks
[10] = in Labrasol ALF, Sample: Gel Stripe (1:1 w/w), T = 1 months
[11] = in Labrasol ALF, Sample: Gel Stripe (1:1 w/w), T = 2 weeks
[12] = in Maisine CC, Sample: 10% water, T = 1 months
[13] = in Maisine CC, Sample: 10% water, T = 2 weeks
[14] = in Maisine CC, Sample: Control, T = 0
[15] = in Maisine CC, Sample: Control, T = 1 months
[16] = in Maisine CC, Sample: Control, T = 2 weeks
[17] = in Maisine CC, Sample: Gel Stripe (1:1 w/w), T = 1 months
[18] = in Maisine CC, Sample: Gel Stripe (1:1 w/w), T = 2 weeks
[19] = in Masester E8120, Sample: 10% water, T = 1 months
[20] = in Masester E8120, Sample: 10% water, T = 2 weeks
[21] = in Masester E8120, Sample: Control, T = 0
[22] = in Masester E8120, Sample: Control, T = 1 months
[23] = in Masester E8120, Sample: Control, T = 2 weeks
[24] = in Masester E8120, Sample: Gel Stripe (1:1 w/w), T = 1 months
[25] = in Masester E8120, Sample: Gel Stripe (1:1 w/w), T = 2 weeks
[26] = in Oleic acid, Sample: 10% water, T = 2 weeks
[27] = in Oleic acid, Sample: Control, T = 0
[28] = in Oleic acid, Sample: Control, T = 2 weeks
[29] = in Oleic acid, Sample: Gel Stripe (1:1 w/w), T = 2 weeks
[30] = in PEG 400, Sample: 10% water, T = 2 weeks

Question: Which results are given for ivermectin?
Answer: Chemical compatibility with the API (PEG 400 as co-solvent): poor chemical compatibility; Chemical compatibility with the API (Vitamin E TPGS compared with Tween 80 and Labrasol ALF (surfactants)): best chemical compatibility; Chromatographic purity by HPLC (Assay) [1]: 97.83 % area; Total Impurities % (excluding API impurities %) [1]: <LOQ; Chromatographic purity by HPLC (Assay) [2]: 95.61 % area; Total Impurities % (excluding API impurities %) [2]: <LOQ; Chromatographic purity by HPLC (Assay) [3]: 97.94 % area; Total Impurities % (excluding API impurities %) [3]: <LOQ; Chromatographic purity by HPLC (Assay) [4]: 94.42 % area; Total Impurities % (excluding API impurities %) [4]: 3.28 % adjusted area; Chromatographic purity by HPLC (Assay) [5]: 89.91 % area; Total Impurities % (excluding API impurities %) [5]: 8.76 % adjusted area; Chromatographic purity by HPLC (Assay) [6]: 93.91 % area; Total Impurities % (excluding API impurities %) [6]: 3.46 % adjusted area; Chromatographic purity by HPLC (Assay) [7]: 97.74 % area; Total Impurities % (excluding API impurities %) [7]: <LOQ; Chromatographic purity by HPLC (Assay) [8]: 81.35 % area; Total Impurities % (excluding API impurities %) [8]: 20.49 % adjusted area; Chromatographic purity by HPLC (Assay) [9]: 89.16 % area; Total Impurities % (excluding API impurities %) [9]: 8.67 % adjusted area; Chromatographic purity by HPLC (Assay) [10]: 96.49 % area; Total Impurities % (excluding API impurities %) [10]: 1.06 % adjusted area; Chromatographic purity by HPLC (Assay) [11]: 97.11 % area; Total Impurities % (excluding API impurities %) [11]: 0.30 % adjusted area; Chromatographic purity by HPLC (Assay) [12]: 96.83 % area; Total Impurities % (excluding API impurities %) [12]: 0.69 % adjusted area; Chromatographic purity by HPLC (Assay) [13]: 95.90 % area; Total Impurities % (excluding API impurities %) [13]: 0.45 % adjusted area; Chromatographic purity by HPLC (Assay) [14]: 97.13 % area; Total Impurities % (excluding API impurities %) [14]: 0.58 % adjusted area; Chromatographic purity by HPLC (Assay) [15]: 96.82 % area; Total Impurities % (excluding API impurities %) [15]: 0.71 % adjusted area; Chromatographic purity by HPLC (Assay) [16]: 96.00 % area; Total Impurities % (excluding API impurities %) [16]: 0.35 % adjusted area; Chromatographic purity by HPLC (Assay) [17]: 96.94 % area; Total Impurities % (excluding API impurities %) [17]: 0.58 % adjusted area; Chromatographic purity by HPLC (Assay) [18]: 96.15 % area; Total Impurities % (excluding API impurities %) [18]: 0.33 % adjusted area; Chromatographic purity by HPLC (Assay) [19]: 91.68 % area; Total Impurities % (excluding API impurities %) [19]: 6.60 % adjusted area; Chromatographic purity by HPLC (Assay) [20]: 95.11 % area; Total Impurities % (excluding API impurities %) [20]: 2.27 % adjusted area; Chromatographic purity by HPLC (Assay) [21]: 97.58 % area; Total Impurities % (excluding API impurities %) [21]: 0.17 % adjusted area; Chromatographic purity by HPLC (Assay) [22]: 97.06 % area; Total Impurities % (excluding API impurities %) [22]: 0.45 % adjusted area; Chromatographic purity by HPLC (Assay) [23]: 96.81 % area; Total Impurities % (excluding API impurities %) [23]: 0.58 % adjusted area; Chromatographic purity by HPLC (Assay) [24]: 97.31 % area; Total Impurities % (excluding API impurities %) [24]: 0.18 % adjusted area; Chromatographic purity by HPLC (Assay) [25]: 97.35 % area; Total Impurities % (excluding API impurities %) [25]: 0.11 % adjusted area; Chromatographic purity by HPLC (Assay) [26]: 86.02 % area; Total Impurities % (excluding API impurities %) [26]: 9.89 % adjusted area; Chromatographic purity by HPLC (Assay) [27]: 99.60 % area; Total Impurities % (excluding API impurities %) [27]: <LOQ; Chromatographic purity by HPLC (Assay) [28]: 83.55 % area; Total Impurities % (excluding API impurities %) [28]: 17.27 % adjusted area; Chromatographic purity by HPLC (Assay) [29]: 83.73 % area; Total Impurities % (excluding API impurities %) [29]: 11.82 % adjusted area; Chromatographic purity by HPLC (Assay) [30]: 94.35 % area; Total Impurities % (excluding API impurities %) [30]: 3.15 % adjusted area; Chromatographic purity by HPLC (Assay) (in PEG 400, Sample: Control, T = 0): 97.58 % area
